Experimental data taken from ChEMBL document CHEMBL1148828, “Deoxycholic acid-derived tetraoxane antimalarials and antiproliferatives(1)” (J Med Chem, 2007).
The source made the active and inactive calls. No cut-off for these calls is given here.

Key:
Mus musculus [1] = test: Survival of Plasmodium berghei KBG 173 infected CD1 mice (Mus musculus) at 10 mg/kg/day; type: ADME, organism-based; conditions: in vivo
Mus musculus [2] = organism: Mus musculus; test: (§1) Toxicity in Plasmodium berghei KBG 173 infected CD1 mice (Mus musculus); type: organism-based; conditions: mouse, in vivo
[3] = as §1; type: organism-based; conditions: CD1, mouse, in vivo
NCI = test: Growth inhibition of human NCI DTP 60 cells; type: functional
LOX IMVI = test: Antiproliferative activity against human LOX IMVI cells after 48 hrs; type: functional
Mus musculus [4] = test: Survival of Plasmodium berghei KBG 173 infected CD1 mice (Mus musculus) at 320 mg/kg/day; type: ADME, organism-based; conditions: in vivo
Plasmodium falciparum [5] = test: Antimalarial activity against Plasmodium falciparum D6; type: functional, organism-based
HCT-116 = test: Antiproliferative activity against human HCT116 cells after 48 hrs; type: functional; conditions: HCT-116, 48 h; for CC50: read-out: LC50 (the source's name)
Mus musculus [6] = test: Survival of Plasmodium berghei KBG 173 infected CD1 mice (Mus musculus) at 80 mg/kg/day; type: ADME, organism-based; conditions: in vivo
SF-268 = test: Antiproliferative activity against human SF268 cells after 48 hrs; type: functional; conditions: SF-268, 48 h
Plasmodium falciparum [7] = test: Antimalarial activity against Plasmodium falciparum TM91C235; type: functional, organism-based
[8] = (§2) Metabolic stability in human liver microsomes; type: ADME, Microsome; conditions: liver microsomes
Plasmodium berghei [9] = test: Antimalarial activity as survivors after 31 days in Plasmodium berghei KBG173 infected CD1 mice (Mus musculus) at 10 mg/kg/day; type: functional, organism-based; conditions: KBG 173
Mus musculus [10] = test: Survival of Plasmodium berghei KBG 173 infected CD1 mice (Mus musculus) at 40 mg/kg/day; type: ADME, organism-based; conditions: in vivo
Plasmodium falciparum [11] = test: Antimalarial activity against Plasmodium falciparum W2; type: functional, organism-based
HOP-62 = test: Antiproliferative activity against human HOP62 cells after 48 hrs; type: functional; conditions: HOP-62, 48 h
Plasmodium berghei [12] = test: Antimalarial activity as survivors after 31 days in Plasmodium berghei KBG173 infected CD1 mice (Mus musculus) at 320 mg/kg/day; type: functional, organism-based; conditions: KBG 173
[13] = Metabolic stability in mouse liver microsomes; type: ADME, Microsome; conditions: liver microsomes
HCC 2998 = test: Antiproliferative activity against human HCC2998 cells after 48 hrs; type: functional; conditions: HCC 2998, 48 h
U-251 = test: Antiproliferative activity against human U251 cells after 48 hrs; type: functional; conditions: U-251, 48 h
T47D = test: Antiproliferative activity against human T47D cells after 48 hrs; type: functional
COLO 205 = test: Antiproliferative activity against human COLO205 cells after 48 hrs; type: functional
HCT-15 = test: Antiproliferative activity against human HCT15 cells after 48 hrs; type: functional; conditions: HCT-15, 48 h
M14 = test: Antiproliferative activity against human M14 cells after 48 hrs; type: functional; conditions: M14, 48 h, read-out: LC50 (the source's name)
786-0 = test: Antiproliferative activity against human 786-0 cells after 48 hrs; type: functional; conditions: Homo sapiens, 786-0, 48 h
CCRF-CEM = test: Antiproliferative activity against human CCRF-CEM cells after 48 hrs; type: functional
Mus musculus [14] = test: Survival of Plasmodium berghei KBG 173 infected CD1 mice (Mus musculus) at 160 mg/kg/day; type: ADME, organism-based; conditions: in vivo
Plasmodium berghei [15] = test: Antimalarial activity as survivors after 31 days in Plasmodium berghei KBG173 infected CD1 mice (Mus musculus) at 40 mg/kg/day; type: functional, organism-based; conditions: KBG 173
NCI-H322M = test: Antiproliferative activity against human NCI-H322M cells after 48 hrs; type: functional
MDA-MB-435 = test: Antiproliferative activity against human MDA-MB-435 cells after 48 hrs; type: functional
OVCAR-3 = test: Antiproliferative activity against human OVCAR-3 cells after 48 hrs; type: functional; conditions: OVCAR-3, 48 h
Mus musculus [16] = test: Survival of Plasmodium berghei KBG 173 infected CD1 mice (Mus musculus) at 20 mg/kg/day; type: ADME, organism-based; conditions: in vivo
CAKI-1 = test: Antiproliferative activity against human CAKI1 cells after 48 hrs; type: functional; conditions: CAKI-1, 48 h
Liver microsomes = test: as §2; type: ADME, Microsome; conditions: microsomes
Plasmodium berghei [17] = test: Antimalarial activity as survivors after 31 days in Plasmodium berghei KBG173 infected CD1 mice (Mus musculus) at 20 mg/kg/day; type: functional, organism-based; conditions: KBG 173
Plasmodium berghei [18] = test: Antimalarial activity as survivors after 31 days in Plasmodium berghei KBG173 infected CD1 mice (Mus musculus) at 80 mg/kg/day; type: functional, organism-based; conditions: KBG 173
[19] = read-out: LC50 (the source's name)
[20] = Plasmodium falciparum, TM91C235

CC(=O)O[C@H]1C[C@H]2[C@@H]([C@H](OC(C)=O)C[C@@H]3CC4(CC[C@@]32C)OOC2(CCCCC2)OO4)[C@@H]2CC[C@H]([C@H](C)CCC(=O)NCCN(C)C)[C@@]12C
Survival (Mus musculus [1]): 8 days | MCD (Mus musculus [2]): <= 40 mg/kg/day | MTD [3]: > 960 mg/kg | GI50 (NCI; Homo sapiens, NCI): < 10 nM | GI50 (LOX IMVI; Homo sapiens, LOX IMVI, 48 h): < 10 nM | LC50 (concentration killing 50% of cells) (LOX IMVI; Homo sapiens, LOX IMVI, 48 h): 68.8 nM | TGI (LOX IMVI; Homo sapiens, LOX IMVI, 48 h): 22.4 nM | Survival (Mus musculus [4]): 31 days | IC50 (Plasmodium falciparum [5]; Plasmodium falciparum, D6): 28.2 nM | IC90 (Plasmodium falciparum [5]; Plasmodium falciparum, D6): 45.1 nM | GI50 (HCT-116): 83.1 nM | TGI (HCT-116): 1690 nM | CC50 (HCT-116): 4620 nM | Survival (Mus musculus [6]): 25 days | GI50 (SF-268): 785 nM | TGI (SF-268): 2250 nM | CC50 (SF-268; [19]): 5350 nM | IC50 (Plasmodium falciparum [7]; [20]): 19.6 nM | IC90 (Plasmodium falciparum [7]; [20]): 37.9 nM | half-life [8]: 40 min | Activity (Plasmodium berghei [9]): inactive | Survival (Mus musculus [10]): 21 days | IC50 (Plasmodium falciparum [11]; Plasmodium falciparum, W2): 14.5 nM | IC90 (Plasmodium falciparum [11]; Plasmodium falciparum, W2): 45.1 nM | GI50 (HOP-62): < 10 nM | LC50 (HOP-62): 83 nM | TGI (HOP-62): 16.6 nM | Activity (Plasmodium berghei [12]): Active | half-life [13]: 40 min

CC(=O)O[C@H]1C[C@H]2[C@@H](CC[C@@H]3CC4(CC[C@@]32C)OOC2(CCC(C)CC2)OO4)[C@@H]2CC[C@H]([C@H](C)CCC(=O)NCCN(C)C)[C@@]12C (stereo in doubt; 16) [listing 1 of 2 here]
GI50 (HCC 2998): 77 nM | TGI (HCC 2998): 210 nM | CC50 (HCC 2998; [19]): 980 nM | GI50 (U-251): 26 nM | TGI (U-251): 87 nM | GI50 (T47D): 130 nM | TGI (T47D): 410 nM | GI (COLO 205): 0.083 µM | TGI (COLO 205; Homo sapiens, COLO 205, 48 h): 20 nM | CC50 (COLO 205; Homo sapiens, COLO 205, 48 h, read-out: LC50 (the source's name)): 490 nM | LC50 (concentration killing 50% of cells) (LOX IMVI): 22 nM | GI50 (LOX IMVI; Homo sapiens, LOX IMVI, 48 h): < 5 nM | TGI (LOX IMVI; Homo sapiens, LOX IMVI, 48 h): 7.4 nM | GI50 (HCT-15): 94 nM | IC50 (Plasmodium falciparum [5]): 12.8 nM | IC90 (Plasmodium falciparum [5]): 18.7 nM | CC50 (M14): 460 nM | GI50 (786-0): 60 nM | TGI (786-0): 150 nM | CC50 (786-0; [19]): 390 nM | GI50 (HCT-116): 9 nM | TGI (HCT-116): 21 nM | CC50 (HCT-116): 47 nM | IC50 (Plasmodium falciparum [7]): 14.7 nM | IC90 (Plasmodium falciparum [7]): 24.2 nM | GI (CCRF-CEM): 0.056 µM | LC50 (concentration killing 50% of cells) (CCRF-CEM; Homo sapiens, CCRF-CEM, 48 h): 500 nM | TGI (CCRF-CEM; Homo sapiens, CCRF-CEM, 48 h): 170 nM | half-life [8]: 110 min | Survival (Mus musculus [10]): 9 days | Survival (Mus musculus [14]): 29 days | IC50 (Plasmodium falciparum [11]): 16.8 nM | IC90 (Plasmodium falciparum [11]): 19.8 nM | GI50 (HOP-62): 54 nM | LC50 (HOP-62): 1160 nM | TGI (HOP-62): 230 nM | half-life [13]: > 120 min

CC(=O)O[C@H]1C[C@H]2[C@@H](CC[C@@H]3CC4(CC[C@@]32C)OOC2(CCC(C)CC2)OO4)[C@@H]2CC[C@H]([C@H](C)CCC(=O)NCCN(C)C)[C@@]12C (stereo in doubt; 16) [listing 2 of 2 here]
Activity (Plasmodium berghei [15]): inactive

CC(=O)O[C@H]1C[C@H]2[C@@H]([C@H](OC(C)=O)C[C@@H]3CC4(CC[C@@]32C)OOC2(CCC(C)CC2)OO4)[C@@H]2CC[C@H]([C@H](C)CCC(=O)NCCN(C)C)[C@@]12C (stereo in doubt; 22) [listing 1 of 2 here]
GI50 (NCI-H322M): 1460 nM | TGI (NCI-H322M): 2790 nM | CC50 (NCI-H322M; [19]): 5340 nM | GI50 (MDA-MB-435): 1530 nM | TGI (MDA-MB-435): 2910 nM | CC50 (MDA-MB-435; Homo sapiens, MDA-MB-435, 48 h, read-out: LC50 (the source's name)): 5520 nM | MCD (Mus musculus [2]): 40 mg/kg/day | GI50 (NCI): 180 nM | GI50 (OVCAR-3): 1190 nM | TGI (OVCAR-3): 2470 nM | CC50 (OVCAR-3; [19]): 5110 nM | GI50 (LOX IMVI): 183 nM | IC50 (Plasmodium falciparum [5]): 18.6 nM | IC90 (Plasmodium falciparum [5]): 27.8 nM | Survival (Mus musculus [16]): 9 days | GI50 (CAKI-1): 1370 nM | TGI (CAKI-1): 2690 nM | CC50 (CAKI-1; [19]): 5290 nM | IC50 (Plasmodium falciparum [7]): 12.2 nM | IC90 (Plasmodium falciparum [7]): 18.5 nM | GI50 (CCRF-CEM): 258 nM | TGI (CCRF-CEM): 725 nM | t1/2 (Liver microsomes): 42 min | Survival (Mus musculus [10]): 19 days | IC50 (Plasmodium falciparum [11]): 16.7 nM | IC90 (Plasmodium falciparum [11]): 24.8 nM | half-life [13]: 77 min

CC(=O)O[C@H]1C[C@H]2[C@@H]([C@H](OC(C)=O)C[C@@H]3CC4(CC[C@@]32C)OOC2(CCC(C)CC2)OO4)[C@@H]2CC[C@H]([C@H](C)CCC(=O)NCCN(C)C)[C@@]12C (stereo in doubt; 22) [listing 2 of 2 here]
Activity (Plasmodium berghei [17]): inactive

CC(=O)O[C@H]1C[C@H]2[C@@H]([C@H](OC(C)=O)C[C@@H]3CC4(CC[C@@]32C)OOC2(CCC(C)CC2)OO4)[C@@H]2CC[C@H]([C@H](C)CCC(=O)NCCN(C)C)[C@@]12C (stereo in doubt; 23)
Activity (Plasmodium berghei [18]): inactive
